Data as given in patent publication US10034939B2, “Synergistic combination of immunologic inhibitors for the treatment of cancer” (The University of Chicago, priority 2012, dated 2018).
pIC50: −log10 of the molar value. Like-named read-outs stand apart in the source and are kept apart here.

Assays:
[1] = target: Human indoleamine 2,3-dioxygenasae (IDO) (Homo sapiens (Human), UniProt P14902); assay: Human indoleamine 2,3-dioxygenasae (IDO) enzyme assay; format: biochemical
Source text: Human indoleamine 2,3-dioxygenasae (IDO) enzyme assay: Human indoleamine 2,3-dioxygenasae (IDO) with an N-terminal His tag was expressed in E. coli and purified to homogeneity. IDO catalyzes the oxidative cleavage of the pyrrole ring of the indole nucleus of tryptophan to yield N′-formylkynurenine.
IC50 data are from the IDO enzyme assay described above.

[2] = tested on: CD3^+ cells in the peripheral blood; assay: Depletion of circulating T cells by FTY720 in tumor-bearing mice; format: in vivo; conditions: 25 μg FTY-720 oral gavage on day 4, relative to vehicle-treated mice
Protocol: Prior to the initiation of the therapy regimens (2.5 h pre-treatment), fingolimod (FTY-720, Enzo Life Sciences) was given to mice to inhibit lymphocyte migration out of lymphoid organs. FTY-720 stock solution (10 mg/ml in DMSO) was diluted to a 125 μg/ml concentration in PBS directly before administration. Mice received a dose of 25 μg FTY-720 or PBS containing DMSO as control via oral gavage. Therapy was initiated the same day (2.5 h delayed) and mice were analyzed on day 7 to perform the ex vivo functional assay as described above.
To determine whether the presence of CD8^+ T cells showing high levels of IL-2 production and proliferation within the tumor microenvironment following effective immunotherapy doublets was a result of new T cell migration into the tumor site or reactivation of T cells already present, FTY720 treatment was utilized to block the sphingosine 1-phosphate receptor-1 and thereby prohibit T cells from exiting lymphoid organs. Previous studies have shown that the effect can be detected as soon as 2 h after initial administration and is stable for up to 4 days. FTY720 was administered or control vehicle to tumor-bearing mice on day 4, 2.5 h prior to the initiation of immunotherapies. […] Overall, a 90% reduction in circulating CD3^+ T cells in FTY720-treated mice was detected (FIG. 13A). […]

[3] = tested on: CD3^+ cells in the peripheral blood; conditions: previous studies; cited from earlier work
B16-SIY cells = assay: Tumor growth inhibition (TGI), unaffected fraction synergy analysis of combination therapies; format: in vivo, mice
Protocol: Treatment was initiated on day 4 post tumor inoculation with the following regimens for each drug. αCTLA-4 antibody (clone UC10-4F10-11, Bio-X-Cell) was given i.p. on day 4, 7 and 10 at a dose of 100 μg/mouse. αPD-L1 antibody (clone 10F.9G2, Bio-X-Cell) was given i.p. (100 μg/mouse) every other day starting on day 4 ending on day 16 post tumor inoculation. IDOi (INCB23843, Incyte Corporation) was dissolved in 0.5% methylcellulose and administered at 300 mg/kg po QD on a 5 days on/2 days off schedule starting on day 4. In the case of functional experiments with an earlier endpoint, treatment regimens were carried out as described until the day of T cell analysis. A comparison between IDOi and IDOc (INCB24360, Incyte Corporation) was perfomed according to the treatment regime described above. Tumor outgrowth was followed starting day 7 onwards and is depicted in combination with anti-CTLA4 (FIG. 18A) or anti-PD-L1 (FIG. 18B). N=5 mice per group, and a two-way Anova test was used to determine significance between the groups.
Treatment was administered in the same fashion as described for FIG. 9, with the exception that IDOi (INCB23843) was replaced by IDOc (INCB24360) in the indicated groups. […] Synergy analysis was performed with day 15 data and with day 23 data. Actual tumor growth inhibition (TGI) is the experimental TGI seen in this experiment for the combinations, and predicted TGI is the TGI that would have been expected for a purely additive combination effect from the performance of the individual agents in this experiment. Actual TGIs higher than predicted TGIs reflect better than additive (synergistic) data.

Chain of Human indoleamine 2,3-dioxygenasae (IDO) (P14902 whole entry): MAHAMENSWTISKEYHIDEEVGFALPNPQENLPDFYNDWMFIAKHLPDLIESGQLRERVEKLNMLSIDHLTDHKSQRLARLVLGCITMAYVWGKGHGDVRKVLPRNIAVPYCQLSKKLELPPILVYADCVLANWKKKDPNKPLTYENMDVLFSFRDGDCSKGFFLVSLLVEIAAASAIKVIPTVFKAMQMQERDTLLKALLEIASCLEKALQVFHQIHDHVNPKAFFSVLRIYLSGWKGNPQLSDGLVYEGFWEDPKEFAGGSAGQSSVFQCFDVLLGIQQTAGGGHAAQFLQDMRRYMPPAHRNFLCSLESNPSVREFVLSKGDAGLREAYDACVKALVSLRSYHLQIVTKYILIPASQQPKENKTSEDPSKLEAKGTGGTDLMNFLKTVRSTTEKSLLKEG

NS(=O)(=O)NCCCNc1nonc1C(=NO)Nc1ccc(F)c(Br)c1 [Example 3, 4-({3-[(Aminosulfonyl)amino]propyl}amino)-N-(3-bromo-4-fluorophenyl)-N′-hydroxy-1,2,5-oxadiazole-3-carboximidamide]
pIC50 ([1]; read-out: IDO IC50): > 7.00

CS(=O)(=O)NCCCNc1nonc1C(=NO)Nc1ccc(F)c(Br)c1 [Example 4, N-(3-Bromo-4-fluorophenyl)-N′-hydroxy-4-({3-[(methylsulfonyl)amino]propyl}amino)-1,2,5-oxadiazole-3-carboximidamide]
pIC50 ([1]; read-out: IDO IC50): > 7.00

NS(=O)(=O)NCCNc1nonc1C(=NO)Nc1ccc(F)c(Cl)c1 [Example 5, 4-({2-[(Aminosulfonyl)amino]ethyl}amino)-N-(3-chloro-4-fluorophenyl)-N′-hydroxy-1,2,5-oxadiazole-3-carboximidamide]
pIC50 ([1]; read-out: IDO IC50): > 6.70

CS(=O)(=O)NCCNc1nonc1C(=NO)Nc1ccc(F)c(Cl)c1 [Example 6, N-(3-Chloro-4-fluorophenyl)-N′-hydroxy-4-({2-[(methylsulfonyl)amino]ethyl}amino)-1,2,5-oxadiazole-3-carboximidamide]
pIC50 ([1]; read-out: IDO IC50): > 6.70

NS(=O)(=O)NCCCNc1nonc1C(=NO)Nc1ccc(F)c(Cl)c1 [Example 7, 4-({3-[(Aminosulfonyl)amino]propyl}amino)-N-(3-chloro-4-fluorophenyl)-N′-hydroxy-1,2,5-oxadiazole-3-carboximidamide]
pIC50 ([1]; read-out: IDO IC50): > 6.70

CS(=O)(=O)NCCCNc1nonc1C(=NO)Nc1ccc(F)c(Cl)c1 [Example 8, N-(3-Chloro-4-fluorophenyl)-N′-hydroxy-4-({3-[(methylsulfonyl)amino]propyl}amino)-1,2,5-oxadiazole-3-carboximidamide]
pIC50 ([1]; read-out: IDO IC50): > 6.70

NS(=O)(=O)NCCNc1nonc1C(=NO)Nc1ccc(F)c(C(F)(F)F)c1 [Example 9, 4-({2-[(Aminosulfonyl)amino]ethyl}amino)-N-[4-fluoro-3-(trifluoromethyl)phenyl]-N′-hydroxy-1,2,5-oxadiazole-3-carboximidamide]
pIC50 ([1]; read-out: IDO IC50): > 7.00

CS(=O)(=O)NCCNc1nonc1C(=NO)Nc1ccc(F)c(C(F)(F)F)c1 [Example 10, N-[4-Fluoro-3-(trifluoromethyl)phenyl]-N′-hydroxy-4-({2-[(methylsulfonyl)amino]ethyl}amino)-1,2,5-oxadiazole-3-carboximidamide]
pIC50 ([1]; read-out: IDO IC50): > 7.00

NS(=O)(=O)NCCCNc1nonc1C(=NO)Nc1ccc(F)c(C(F)(F)F)c1 [Example 11, 4-({3-[(Aminosulfonyl)amino]propyl}amino)-N-[4-fluoro-3-(trifluoromethyl)phenyl]-N′-hydroxy-1,2,5-oxadiazole-3-carboximidamide]
pIC50 ([1]; read-out: IDO IC50): > 7.00

CS(=O)(=O)NCCCNc1nonc1C(=NO)Nc1ccc(F)c(C(F)(F)F)c1 [Example 12, N-[4-Fluoro-3-(trifluoromethyl)phenyl]-N′-hydroxy-4-({3-[(methylsulfonyl)amino]propyl}amino)-1,2,5-oxadiazole-3-carboximidamide]
pIC50 ([1]; read-out: IDO IC50): > 7.00

NS(=O)(=O)NCCNc1nonc1C(=NO)Nc1cccc(C(F)(F)F)c1 [Example 13, 4-({2-[(Aminosulfonyl)amino]ethyl}amino)-N′-hydroxy-N-[3-(trifluoromethyl)phenyl]-1,2,5-oxadiazole-3-carboximidamide]
pIC50 ([1]; read-out: IDO IC50): > 6.30

CS(=O)(=O)NCCNc1nonc1C(=NO)Nc1cccc(C(F)(F)F)c1 [Example 14, N′-Hydroxy-4-({2-[(methylsulfonyl)amino]ethyl}amino)-N-[3-(trifluoromethyl)phenyl]-1,2,5-oxadiazole-3-carboximidamide]
pIC50 ([1]; read-out: IDO IC50): > 6.70

NS(=O)(=O)NCCCNc1nonc1C(=NO)Nc1cccc(C(F)(F)F)c1 [Example 15, 4-({3-[(Aminosulfonyl)amino]propyl}amino)-N′-hydroxy-N-[3-(trifluoromethyl)phenyl]-1,2,5-oxadiazole-3-carboximidamide]
pIC50 ([1]; read-out: IDO IC50): > 6.70

CS(=O)(=O)NCCCNc1nonc1C(=NO)Nc1cccc(C(F)(F)F)c1 [Example 16, N′-Hydroxy-4-({3-[(methylsulfonyl)amino]propyl}amino)-N-[3-(trifluoromethyl)phenyl]-1,2,5-oxadiazole-3-carboximidamide]
pIC50 ([1]; read-out: IDO IC50): > 6.70

Cc1cc(NC(=NO)c2nonc2NCCNS(C)(=O)=O)ccc1F [Example 17, N-(4-Fluoro-3-methylphenyl)-N′-hydroxy-4-({2-[(methylsulfonyl)amino]ethyl}amino)-1,2,5-oxadiazole-3-carboximidamide]
pIC50 ([1]; read-out: IDO IC50): > 6.30

N#Cc1cc(NC(=NO)c2nonc2NCCNS(N)(=O)=O)ccc1F [Example 18, 4-({2-[(Aminosulfonyl)amino]ethyl}amino)-N-(3-cyano-4-fluorophenyl)-N′-hydroxy-1,2,5-oxadiazole-3-carboximidamide]
pIC50 ([1]; read-out: IDO IC50): > 6.12

CS(=O)(=O)NCCNc1nonc1C(=NO)Nc1ccc(F)c(C#N)c1 [Example 19, N-(3-Cyano-4-fluorophenyl)-N′-hydroxy-4-({2-[(methylsulfonyl)amino]ethyl}amino)-1,2,5-oxadiazole-3-carboximidamide]
pIC50 ([1]; read-out: IDO IC50): > 6.30

NS(=O)(=O)NCCNc1nonc1C(=NO)NCc1cc(Br)co1 [Example 20, 4-({2-[(Aminosulfonyl)amino]ethyl}amino)-N-[(4-bromo-2-furyl)methyl]-N′-hydroxy-1,2,5-oxadiazole-3-carboximidamide]
pIC50 ([1]; read-out: IDO IC50): > 6.30

NS(=O)(=O)NCCNc1nonc1C(=NO)NCc1cc(Cl)co1 [Example 21, 4-({2-[(Aminosulfonyl)amino]ethyl}amino)-N-[(4-chloro-2-furyl)methyl]-N′-hydroxy-1,2,5-oxadiazole-3-carboximidamide]
pIC50 ([1]; read-out: IDO IC50): > 6.12

CN(CCNc1nonc1/C(=N/O)Nc1ccc(F)c(Cl)c1)S(N)(=O)=O [Example 24, 4-(2-[(Aminosulfonyl)(methyl)amino]ethylamino)-N-(3-chloro-4-fluorophenyl)-N′-hydroxy-1,2,5-oxadiazole-3-carboximidamide]
pIC50 ([1]; average of five lots, read-out: IC50): 6.88
pIC50 ([1]; read-out: IDO IC50): > 6.70

CCCCCCCCc1ccc(CCC(N)(CO)CO)cc1 [FTY720, fingolimod]
reduction in circulating CD3^+ T cells [2]: 90%
time after initial administration at which the effect can be detected [3]: 2 h
time for which the effect is stable [3]: up to 4 days

NS(=O)(=O)NCCNc1nonc1/C(=N/O)Nc1ccc(F)c(Br)c1 [IDOc]
Actual TGI (B16-SIY cells; Day 15 (end of dosing), combination with anti CTLA4): 74%
Actual TGI (B16-SIY cells; Day 15 (end of dosing), combination with antiPDL1): 81%
Predicted TGI (B16-SIY cells; Day 15, combination with anti CTLA4, expected for a purely additive effect from the individual agents): 66%
Predicted TGI (B16-SIY cells; Day 15, combination with antiPDL1, expected for a purely additive effect): 24%
Actual TGI (B16-SIY cells; Day 23 (last day of vehicles), combination with anti CTLA4): 93%
Actual TGI (B16-SIY cells; Day 23 (last day of vehicles), combination with antiPDL1): 82%
Predicted TGI (B16-SIY cells; Day 23, combination with anti CTLA4, expected for a purely additive effect): 65%
Predicted TGI (B16-SIY cells; Day 23, combination with antiPDL1, expected for a purely additive effect): 35%
